Measured values taken from patent US20020061866A1, “Pharmaceutical compositions comprising in combination a bisphosphonate and a matrix metalloproteinase inhibitor” (priority 1999, published 2002).
Values joined by “and” are separate entries in the source; they are usually repeats but may differ in a detail not shown here. Identical values can stand only once.

Legend:
[1] = system: MMP-2 secretion by BMSC; assay: Determination of gelatinase A (MMP-2) levels by gelatin substrate gel zymography; type: cell-based, human; conditions: 48 h
Description: (§1) BMSC are obtained from 7 patients with MM after long term culture of bone marrow samples. Bone marrow mononuclear cells are isolated by Ficoll-Hypaque density centrifugation. The cells are plated in DMEM supplemented with 10% FCS and allowed to attach for 3 days, after which the medium is renewed. After 2 to 3 weeks of culture, a confluent adherent cell monolayer is obtained and then, after two passages using trypsin/ETA solution, BMSC are recovered for study. Cells are maintained in DMEM supplemented with 10% FCS, 2 mmol/L glutamine, 100 μg/mL streptomycin, 100 U/mL penicillin, and 5. 10^−5 mol/L 2-β-mercaptoethanol.
Adherent BMSC (10^4 cells) plated in 96-well plates are preincubated for 24 hours with either pamidronate or zoledronate. Then the medium is replaced by a fresh one without FCS but in the presence of different concentrations (10^−6, 10^−7, 10^−8, 10^−9 Mol/L) of each bisphosphonate. After a 48-hour incubation period, the supernatants are collected and stored at −20° C. until analysis. MMP-2 production is shown by gelatin substrate gel zymography. The supernatants are mixed with sodium dodecyl sulfate (SDS) sample buffer without reducing agent and then, proteins are separated by SDS-polyacrylamide gel electrophoresis in 7.5% polyacrylamide gels containing gelatin at 1 mg/ml, as previously described by Heussen and Dowdle(1980 Ann. Biochem. 102: 196-202) and adjusted for minigel format. After electrophoresis, SDS is removed from the gels by an incubation in 2.5% Triton X-100 for half an hour at room temperature. The gels are then incubated at 37° C. in a buffer containing 50 mM/L Tris-HCl 5 mM/L CaCl2, pH 7.6 for 24 hours. The gels were stained with Coomassie blue R250 (0.25%). […] The intensity of the gelatinolytic bands is analysed by densitometry. No interference between bisphosphonates and gelatin substrate gel zymography is observed using this assay (data not shown).

[2] = system: IL-1β-induced MMP-1 secretion by BMSC; assay: Determination of interstitial collagenase (MMP-1) levels by ELISA; type: cell-based, human; conditions: IL-1β (10 ng/ml) stimulated, 48 h, mean ± SD
Description: as §1
Adherent BMSC (15×10^3 cells) plated in 96-well plates are preincubated for 24 hours with either pamidronate or zoledronate. Then the cells are stimulated by IL-1β (10 ng/ml) in the presence of different concentrations (10^−6, 10^−7, 10^−8 and 10^−9 Mol/L) of each bisphosphonate without FCS. After a 48-hour incubation period, supernatants are collected and stored at −20° C. until analysis. MMP-1 levels are measured by ELISA (Amersham, Les Ulis, France). This assay measures MMP-1 irrespective of its mode of presentation (i.e. free or bound, active or not).

[3] = system: BMSC; assay: Survival experiments, BMSC apoptosis by APO 2.7 flow cytometry; type: cell-based, human; conditions: 10^−4 mol/L, 3-day incubation
Description: as §1
Adherent BMSC (3×10^5 cells) are plated in 25 cm^2 flasks and are incubated with either pamidronate (APD) or zoledronate, at the following concentrations: 10^−4 and 10^−5 mol/L. A control without bisphosphonate is performed After a 3-day incubation period, cells are washed with PBS and removed from the flasks using trypsin-EDTA for 20 seconds. The percentage of apoptotic cells is determined by flow cytometry using APO 2.7 mAb (Immunotech, Marseilles, France) (ibid.).

[4] = system: constitutive production of IL-6 by BMSC; assay: Determination of IL-6 concentrations by ELISA; type: cell-based, human; conditions: 48 h
Description: as §1
Adherent BMSC (10^4 cells) plated in 96-well plates are preincubated for 24 hours with either pamidronate or zoledronate. The medium is replaced by a fresh one containing 2% FCS and different concentrations of each bisphosphonate: 10^−6, 10^−7, 10^−8, 10^−9, 10^−10, 10^−11 Mol/L of zoledronate and 10^−6, 10^−7, 10^−8, 10^−9, 10^−10 Mol/L of pamidronate respectively. After a 48-hour incubation period, the supernatants are collected and stored at −20° C. until analysis. L6 A production is measured by ELISA (ELISA test concentrations ranging from 10 to 500 pg/mL) (Innotest, Besancon, France). No interference between the bisphosphonates and ELISA is observed in this study (data not shown). Six of the seven BMSC are tested for production of IL-6 in the presence of bisphosphonates.

[5] = system: LP-1; assay: Proliferation of HMCL, [3H]-thymidine incorporation; type: cell-based, human; conditions: for IC50: Homo sapiens, LP-1, 72 h, 3 days
Description: (§2) The human myeloma cell lines (HMCL) LP-1 and OPM-2 were obtained from DSM (Braunschweig, Germany). JJN-3 was kindly provided by B Van Campo (VUB, Belgium). Cells are maintained in RPMI 1640 culture medium supplemented with 10% fetal calf serum (FCS), 2mM glutamine, antibiotics (100 IU/ml penicillin and 100 μg/ml streptomycin) and 10 μM 2-β-mercaptoethanol.
(§3) The three HMCL are studied Le., LP-1, OPM-2 and JJN-3. Proliferation assays are performed in 96-well round-bottom microtiter plates at a cell density of 10^5 cells/mL. Cells are incubated for 3 days at 37° C. in a 5% CO2 humidified atmosphere with or without recombinant human IL-6 (rhIL-6) at 5 ng/ml, in the presence (or not) of the bisphosphonate of interest. Then, […] of […] is added during the last 18 hours. [^3H]-thymidine, incorporation is quantified by liquid scintillation spectroscopy.

[6] = system: OPM-2; assay: as above; type: cell-based, human; conditions: for IC50: Homo sapiens, OPM-2, 72 h, 3 days
Description: as §2, §3

[7] = system: JJN-3; assay: as above; type: cell-based, human; conditions: for concentration at which proliferation returns to the level of the control: JJN-3
Description: as §2, §3

[8] = system: LP-1 cells; assay: Analysis of cell cycle, propidium iodide flow cytometry; type: cell-based, human; conditions: LP-1, 5×10^−4 Mol/L, 4 day incubation; control 36%
Description: LP-1 cells (2×10^5 cells) plated in a 24 well-plate are incubated in the presence of 5×10^−4 Mol/L of either pamidronate or zoledronate. A control without bisphosphonate is performed. Cells are recovered after a 4day incubation period and washed. They are then incubated for 40 minutes at 37° C. with a solution of Triton×100 0.1%, Sodium Citrate 0.1%, 5 IU of RNAse and stained with propidium iodide (PI) 50 mg/L: Flow cytometry analysis is performed on a FACSCalibur using a CELLQuest program (Becton Dickinson). Data are gated on the F12-Area venus FL2-Width cytogram to exclude doublets and agregates, and a minimum of 2.5×10^4 gated cells is collected per sample. Analysis of the cell cycle was performed using the Modfit LT for Mac V2.01 program (Verity Software House, Inc). Apoptotic cells were detected as a subdiploid peak as described by Zamai et al. (1993, Cytometry 14: 891-897)

[9] = system: human myeloma cell lines (HMCL) LP-1, OPM-2 and JJN-3; assay: Proliferation of HMCL, [3H]-thymidine incorporation (three cell lines together); type: cell-based; conditions: for inhibition at 500 µM: Homo sapiens, 72 h, all the HMCL
Description: as §2, §3

[10] = system: MMP-2 production and secretion by PC-3 ML cells; conditions: in vitro and in vivo; cited from earlier work
[11] = system: human PC-3 ML prostatic cancer subclones; conditions: pretreatment of SCID mice; cited from earlier work
[12] = system: human estrogen-independent breast cancer MDA-231 cells; conditions: nontransfected MDA-231 cells, daily subcutaneous administration; cited from earlier work

SMILES	MMP-2 upregulation (72 kDa gelatinase activity, densitometry) ([1]; 10^−6 mol/L)	inhibition of MMP-1 secretion by BMSC [2]	APO 2.7 stained (apoptotic) BMSC [3] [%]	concentration at which IL-6 production returns to the basal level ([4]; BMSC)	IC50 [5] [µM]	IC50 [6] [µM]	concentration at which proliferation returns to the level of the control [7] [mol/L]	inhibition at 500 µM ([9]; 5×10^−4 Mol/L, 3 days) [%]	production and secretion of MMP-2 by PC-3 ML cells [10]	also measured
O=P(O)(O)C(O)(Cn1ccnc1)P(=O)(O)O [zoledronate, (1-hydroxy-2-(1H-imidazole-1-yl)ethylidene) bisphosphonate]	180%±12% and 205%±7%	44%±14%	24	10^−9 mol/L	193	155	1e-05	~95	–	MMP-2 upregulation (72 kDa gelatinase activity, densitometry) ([1]; 10^−9 mol/L): 159%±16%; inhibition at 1 µM ([4]; Homo sapiens, BMSC, 10^−6 mol/L, p=0.05, read-out: maximum inhibition of IL-6 production by BMSC): 60%; concentration at which normal proliferation rate is recovered ([5]; LP-1): 5e-05 mol/L; concentration at which normal proliferation rate is recovered ([6]; OPM-2): 5e-05 mol/L; percentage of cells in S phase [8]: 60%
CC(=O)O[C@H]1C(=O)[C@@]2(C)[C@H]([C@H](OC(=O)c3ccccc3)[C@]3(O)C[C@H](OC(=O)[C@H](O)[C@@H](NC(=O)c4ccccc4)c4ccccc4)C(C)=C1C3(C)C)[C@]1(OC(C)=O)CO[C@@H]1C[C@@H]2O [taxol]	–	–	–	–	–	–	–	–	independently reduced, in part	–
NCCCC(O)(P(=O)(O)O)P(=O)(O)O [alendronate, 4-amino-1-hydroxybutane-1,1-diphosphonic acid]	–	–	–	–	–	–	–	–	independently reduced, in part	establishment of bone metastases [11]: partially blocked
CCCCCN(C)CCC(O)(P(=O)(O)O)P(=O)(O)O [ibandronate, 1-hydroxy-3-(methylpentylamino)-propylidene-bisphosphonic acid]	–	–	–	–	–	–	–	–	–	osteolytic lesions in bone (radiographs) [12]: markedly decreased
NCCC(O)(P(=O)(O)O)P(=O)(O)O [pamidronate, (3-amino-1-hydroxypropylidene) bis-phosphonate]	165%±27%	21%±20%	97	10^−11 mol/L	207	293	1e-05	75	–	inhibition of IL-6 production by BMSC ([4]; not proportional to dose, six BMSC samples, p=0.05): 40%±14%; IC50 ([7]; Homo sapiens, JJN-3, 72 h, 3 days): 107 µM; percentage of proliferation, of that of the control ([9]; 5×10^−4 Mol/L, the three cell lines, 3 days): 25%; concentration up to which dose-dependent inhibition of proliferation is observed ([9]; except for JJN-3): 5e-05 mol/L
